Assay [1] deals with T1, potassium ion channel hERG (Homo sapiens, UniProt Q12809).
T1 construct: expressed in transfected cells; host or cells: Chinese hamster ovary K1 (CHO)
Put plainly: Assay 5 hERG assay (patch clamp, CHO cells over-expressing hERG). It is filed as cell-based. As to conditions: SyncroPatch 384PE, room temperature, geometric mean, read-out: Assay 5 (hERG Hu CHO if EPh CR-Syncro) GMean IC50. An outline of the steps: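 hERG currents recorded by automated patch clamp at room temperature in CHO-K1 cells, 6-point cumulative concentrations. SyncroPatch runs used KF-based internal (pH 7.2) and NMDG-containing external solution (pH 7.4), 0.33% DMSO; QPatchII runs used 2% or 0.4% DMSO. Only wells meeting seal-resistance and current-size criteria kept.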
A general note: hERG is a cardiac potassium channel; its block is linked to QT prolongation.

For assay [2], the target named is T2, PCSK9 (Homo sapiens, UniProt Q8NBP7, G670E/V474I). Put plainly: biochemical.
T2 sequence (Q8NBP7 with tags, fused parts or gaps V474I/G670E): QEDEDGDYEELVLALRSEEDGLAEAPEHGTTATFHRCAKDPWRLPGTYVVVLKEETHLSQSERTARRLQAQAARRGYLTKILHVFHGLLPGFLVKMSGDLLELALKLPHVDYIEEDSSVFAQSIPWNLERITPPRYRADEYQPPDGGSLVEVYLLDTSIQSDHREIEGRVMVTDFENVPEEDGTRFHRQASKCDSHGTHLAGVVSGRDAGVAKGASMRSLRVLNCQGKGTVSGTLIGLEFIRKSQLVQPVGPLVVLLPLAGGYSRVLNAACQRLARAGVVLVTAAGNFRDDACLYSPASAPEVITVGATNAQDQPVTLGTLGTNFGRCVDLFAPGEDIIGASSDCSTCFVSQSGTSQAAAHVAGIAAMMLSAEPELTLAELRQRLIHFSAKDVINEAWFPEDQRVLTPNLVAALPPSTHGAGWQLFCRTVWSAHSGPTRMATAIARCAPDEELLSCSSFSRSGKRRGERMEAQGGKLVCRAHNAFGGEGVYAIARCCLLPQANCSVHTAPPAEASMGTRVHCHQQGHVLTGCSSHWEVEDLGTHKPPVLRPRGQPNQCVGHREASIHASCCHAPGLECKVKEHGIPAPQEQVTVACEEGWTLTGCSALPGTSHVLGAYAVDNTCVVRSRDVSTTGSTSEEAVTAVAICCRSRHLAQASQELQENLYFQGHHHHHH
The target of assay [3] is T2, PCSK9. Put plainly: Assay 3 PCSK9 LDL-C uptake assay in HepG2 cells. It is filed as cell-based. Further details: TEV site (C); His6 (C); host or cells: added to HepG2 (ATCC #HB-8065). As to conditions: 125 nM PCSK9, pHrodo Red-LDL, read-out: Assay 3 LDL uptake potency. A digest of the protocol:
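HepG2 cells were plated for 24 h, then exposed for 24 h at 37 °C to compounds (half-log series, 10 μM top) with 125 nM exogenous PCSK9. pHrodo Red-LDL ([…]) uptake was then imaged by fluorescence at 4 h and 24 h. Signal was normalized as % effect between DMSO and 100 nM evolocumab, with a four-parameter logistic fit.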

This note sets out measurements from patent US20240228469A1, “PCSK9 INHIBITORS AND METHODS OF USE THEREOF” (AstraZeneca AB, priority 2022, published 2024).

A word on the IC50: it is the concentration that inhibits the measured activity by half.

T1 sequence (Q12809 whole entry): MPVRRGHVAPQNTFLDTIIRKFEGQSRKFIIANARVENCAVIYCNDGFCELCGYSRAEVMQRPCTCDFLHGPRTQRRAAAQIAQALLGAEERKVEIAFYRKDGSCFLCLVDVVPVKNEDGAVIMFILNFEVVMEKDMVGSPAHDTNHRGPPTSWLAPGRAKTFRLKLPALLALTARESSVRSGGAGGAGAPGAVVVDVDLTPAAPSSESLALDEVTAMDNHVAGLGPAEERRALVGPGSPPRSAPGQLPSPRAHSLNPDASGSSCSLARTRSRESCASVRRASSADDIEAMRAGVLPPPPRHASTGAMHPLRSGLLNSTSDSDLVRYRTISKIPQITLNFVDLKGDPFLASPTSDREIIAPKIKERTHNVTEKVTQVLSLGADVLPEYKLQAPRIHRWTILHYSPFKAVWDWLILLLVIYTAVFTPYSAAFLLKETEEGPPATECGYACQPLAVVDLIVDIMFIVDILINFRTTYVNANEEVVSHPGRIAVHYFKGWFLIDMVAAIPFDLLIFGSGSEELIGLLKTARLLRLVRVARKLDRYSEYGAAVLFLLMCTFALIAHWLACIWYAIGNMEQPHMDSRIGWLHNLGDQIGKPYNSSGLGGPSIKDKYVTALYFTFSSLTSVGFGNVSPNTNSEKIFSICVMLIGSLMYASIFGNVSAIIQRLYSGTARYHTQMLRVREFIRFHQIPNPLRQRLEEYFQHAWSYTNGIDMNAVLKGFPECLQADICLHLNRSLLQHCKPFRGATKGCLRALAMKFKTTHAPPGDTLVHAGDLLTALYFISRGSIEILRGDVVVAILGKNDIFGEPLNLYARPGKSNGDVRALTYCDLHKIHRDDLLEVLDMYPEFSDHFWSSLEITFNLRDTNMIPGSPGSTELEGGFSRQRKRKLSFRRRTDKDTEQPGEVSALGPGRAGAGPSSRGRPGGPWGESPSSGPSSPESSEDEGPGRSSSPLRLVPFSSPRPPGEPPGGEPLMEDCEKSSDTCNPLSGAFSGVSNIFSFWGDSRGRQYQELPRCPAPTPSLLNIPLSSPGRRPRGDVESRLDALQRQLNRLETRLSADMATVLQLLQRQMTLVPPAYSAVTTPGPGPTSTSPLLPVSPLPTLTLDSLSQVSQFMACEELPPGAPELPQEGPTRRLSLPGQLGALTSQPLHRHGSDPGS

`Cn1c(=O)n(-c2ccc(N[C@H]3CC[C@H](Nc4ncc(C5CC5)nn4)C3)nc2)c2ccc(C(=O)O)cc21` [Example 121, 1-(6-(((1S,3S)-3-((6-Cyclopropyl-1,2,4-triazin-3-yl)amino)cyclopentyl)amino)pyridin-3-yl)-3-methyl-2-oxo-2,3-dihydro-1H-benzo[d]imidazole-5-carboxylic acid]: the results for the IC50 (in assay [1]; against PCSK9 [2]) were over 40000 nM and 1 nM, respectively. The EC50 on PCSK9 [3] amounted to 100 nM.

As for `N#Cc1cccn(-c2ccc(N[C@H]3CC[C@H](Nc4ncc(C5CC5)nn4)C3)nc2)c1=O` [Example 58, 6′-(((1S,3S)-3-((6-Cyclopropyl-1,2,4-triazin-3-yl)amino)cyclopentyl)amino)-2-oxo-2H-[1,3′-bipyridine]-3-carbonitrile], the IC50 is over 40000 nM in assay [1] and 1.6 nM at PCSK9 [2]. Besides, the EC50 at PCSK9 [3] came out at 100 nM.

As for `O=c1c(OC(F)(F)F)cccn1-c1ccc(N[C@H]2CC[C@H](Nc3ncc(C4CC4)nn3)C2)nc1` [Example 52, 6′-(((1S,3S)-3-((6-Cyclopropyl-1,2,4-triazin-3-yl)amino)cyclopentyl)amino)-3-(trifluoromethoxy)-2H-[1,3′-bipyridin]-2-one], the IC50 in assay [1] worked out at 39900 nM; against PCSK9 [2] it was 2.3 nM. Further, the EC50 at PCSK9 [3] was 100 nM.

Regarding `O=c1c(Cl)cccn1-c1ccc(N[C@H]2CC[C@H](Nc3ncc(C4CC4)nn3)C2)nc1` [Example 55, 3-Chloro-6′-(((1S,3S)-3-((6-cyclopropyl-1,2,4-triazin-3-yl)amino)cyclopentyl)amino)-2H-[1,3′-bipyridin]-2-one], the values for the IC50 (in assay [1]; on PCSK9 [2]) were 30300 nM and 1 nM, respectively. Also, on PCSK9 [3], the EC50 came to 100 nM.

As to `O=c1c(C(F)(F)F)cccn1-c1ccc(N[C@H]2CC[C@H](Nc3ncc(C4CC4)nn3)C2)nc1` [Example 51, 6′-(((1S,3S)-3-((6-Cyclopropyl-1,2,4-triazin-3-yl)amino)cyclopentyl)amino)-3-(trifluoromethyl)-2H-[1,3′-bipyridin]-2-one], the IC50 in assay [1] turned out to be 10800 nM; against PCSK9 [2] it was 1.8 nM. Also, on PCSK9 [3], the EC50 was 100 nM.

Turning to `O=c1ccncn1-c1ccc(N[C@H]2CC[C@H](Nc3ncc(C4CC4)nn3)C2)nc1` [Example 114, 3-(6-(((1S,3S)-3-((6-Cyclopropyl-1,2,4-triazin-3-yl)amino)cyclopentyl)amino)pyridin-3-yl)pyrimidin-4(3H)-one], the IC50 in assay [1] amounted to 18600 nM; against PCSK9 [2], 7.6 nM. In addition, at PCSK9 [3], the EC50 stood at 300 nM.

Regarding `N#Cc1ccc(=O)n(-c2ccc(N[C@H]3CC[C@H](Nc4ncc(C5CC5)nn4)C3)nc2)c1` [Example 56, 6′-(((1S,3S)-3-((6-Cyclopropyl-1,2,4-triazin-3-yl)amino)cyclopentyl)amino)-2-oxo-2H-[1,3′-bipyridine]-5-carbonitrile], the IC50 is 34900 nM in assay [1] and 9 nM at PCSK9 [2]. Also, the EC50 on PCSK9 [3] is 300 nM.

On to `Cn1c(=O)n(-c2ccc(N[C@H]3CC[C@H](Nc4ncc(C5CC5)nn4)C3)nc2)c2ccc(C#N)cc21` [Example 117, 1-(6-(((1S,3S)-3-((6-Cyclopropyl-1,2,4-triazin-3-yl)amino)cyclopentyl)amino)pyridin-3-yl)-3-methyl-2-oxo-2,3-dihydro-1H-benzo[d]imidazole-5-carbonitrile], for which the IC50 in assay [1] was 6300 nM; on PCSK9 [2] it was 1 nM. Further, the EC50 on PCSK9 [3] is 300 nM.

For the compound `COc1cccn(-c2ccc(N[C@H]3CC[C@H](Nc4ncc(C)nn4)C3)nc2)c1=O` [Example 132, 3-Methoxy-6′-(((1S,3S)-3-((6-methyl-1,2,4-triazin-3-yl)amino)cyclopentyl)amino)-2H-[1,3′-bipyridin]-2-one], the half-maximal inhibitory concentration (IC50) in assay [1] is over 40000 nM; at PCSK9 [2], 2.3 nM. For the same compound, the EC50 at PCSK9 [3] worked out at 100 nM.

Consider `Cc1cnc(N[C@H]2CC[C@H](Nc3ccc(-n4c(=O)n(C)c5cccnc54)cn3)C2)nn1` [Example 212, 1-Methyl-3-(6-(((1S,3S)-3-((6-methyl-1,2,4-triazin-3-yl)amino)cyclopentyl)amino)pyridin-3-yl)-1,3-dihydro-2H-imidazo[4,5-b]pyridin-2-one], for which the IC50 in assay [1] is over 40100 nM; on PCSK9 [2], 1.8 nM. In addition, the EC50 on PCSK9 [3] is 100 nM.

As to `CN1CC(=O)N(c2ccc(N[C@H]3CC[C@H](Nc4ncc(C5CC5)nn4)C3)nc2)C1=O` [Example 57, 3-(6-(((1S,3S)-3-((6-Cyclopropyl-1,2,4-triazin-3-yl)amino)cyclopentyl)amino)pyridin-3-yl)-1-methylimidazolidine-2,4-dione], the IC50 was over 40000 nM in assay [1] and 11 nM against PCSK9 [2]. The EC50 on PCSK9 [3] was determined as 500 nM.

For `Cc1cccn(-c2ccc(N[C@H]3CC[C@H](Nc4ncc(C5CC5)nn4)C3)nc2)c1=O` [Example 66, 6′-(((1S,3S)-3-((6-Cyclopropyl-1,2,4-triazin-3-yl)amino)cyclopentyl)amino)-3-methyl-2H-[1,3′-bipyridin]-2-one], the values for the IC50 (in assay [1]; against PCSK9 [2]) were over 40000 nM and 1.7 nM, respectively. Further, the EC50 on PCSK9 [3] was found to be 100 nM.

Turning to `O=c1cccnn1-c1ccc(N[C@H]2CC[C@H](Nc3ncc(C4CC4)nn3)C2)nc1` [Example 118], the IC50 is over 40000 nM in assay [1] and 7.4 nM at PCSK9 [2]. For the same compound, on PCSK9 [3], the EC50 came to 500 nM.

`Cc1cnc(N[C@H]2CC[C@H](Nc3ccc(-n4nccc(Cl)c4=O)cn3)C2)nn1` [Example 221, 4-Chloro-2-(6-(((1S,3S)-3-((6-methyl-1,2,4-triazin-3-yl)amino)cyclopentyl)amino)pyridin-3-yl)pyridazin-3(2H)-one]: the values for the IC50 (in assay [1]; against PCSK9 [2]) were over 40100 nM and 1.6 nM, respectively. At PCSK9 [3], the EC50 amounted to 300 nM.

Consider `COc1ccc(=O)n(-c2ccc(N[C@H]3CC[C@H](Nc4ncc(C)nn4)C3)nc2)c1` [Example 133, 5-Methoxy-6′-(((1S,3S)-3-((6-methyl-1,2,4-triazin-3-yl)amino)cyclopentyl)amino)-2H-[1,3′-bipyridin]-2-one], for which the figures for the IC50 (in assay [1]; on PCSK9 [2]) were over 40000 nM and 17 nM, respectively. In addition, the EC50 at PCSK9 [3] came out at 400 nM.

Turning to `Cn1c(=O)n(-c2ccc(N[C@H]3CC[C@H](Nc4ncc(C5CC5)nn4)C3)nc2)c2ncccc21` [Example 63, 3-(6-(((1S,3S)-3-((6-Cyclopropyl-1,2,4-triazin-3-yl)amino)cyclopentyl)amino)pyridin-3-yl)-1-methyl-1,3-dihydro-2H-imidazo[4,5-b]pyridin-2-one], the IC50 in assay [1] was over 40000 nM. Besides, the EC50 at PCSK9 [3] was found to be 100 nM.

On to `COc1cccn(-c2ccc(N[C@H]3CC[C@H](Nc4ncc(C5CC5)nn4)C3)nc2)c1=O` [Example 64, 6′-(((1S,3S)-3-((6-Cyclopropyl-1,2,4-triazin-3-yl)amino)cyclopentyl)amino)-3-methoxy-2H-[1,3′-bipyridin]-2-one], for which the IC50 in assay [1] was over 40000 nM; on PCSK9 [2], 1.5 nM. Besides, the EC50 at PCSK9 [3] turned out to be 200 nM.

Take `Cc1cnc(N[C@H]2CC[C@H](Nc3ccc(-n4cccc(C(F)(F)F)c4=O)cn3)C2)nn1` [Example 135, 6′-(((1S,3S)-3-((6-Methyl-1,2,4-triazin-3-yl)amino)cyclopentyl)amino)-3-(trifluoromethyl)-2H-[1,3′-bipyridin]-2-one]: the IC50 in assay [1] was over 40000 nM; on PCSK9 [2], 2.8 nM. The EC50 at PCSK9 [3] is 100 nM.

`Cc1cnc(N[C@H]2CC[C@H](Nc3ccc(-n4cc(C#N)ccc4=O)cn3)C2)nn1` [Example 128, 6′-(((1S,3S)-3-((6-Methyl-1,2,4-triazin-3-yl)amino)cyclopentyl)amino)-2-oxo-2H-[1,3′-bipyridine]-5-carbonitrile]: the IC50 in assay [1] is over 40000 nM; against PCSK9 [2], 20 nM. In addition, the EC50 at PCSK9 [3] worked out at 800 nM.

As for `Cc1cnc(N[C@H]2CC[C@H](Nc3ccc(-n4c(=O)n(C)c5ccc(C#N)cc54)cn3)C2)nn1` [Example 210, 1-Methyl-3-(6-(((1S,3S)-3-((6-methyl-1,2,4-triazin-3-yl)amino)cyclopentyl)amino)pyridin-3-yl)-2-oxo-2,3-dihydro-1H-benzo[d]imidazole-5-carbonitrile], the IC50 was over 40100 nM in assay [1] and 0.9 nM against PCSK9 [2]. Besides, the EC50 on PCSK9 [3] came to 100 nM.

`Cc1cnc(N[C@H]2CC[C@H](Nc3ccc(-n4cccc(Cl)c4=O)cn3)C2)nn1` [Example 129, 3-Chloro-6′-(((1S,3S)-3-((6-methyl-1,2,4-triazin-3-yl)amino)cyclopentyl)amino)-2H-[1,3′-bipyridin]-2-one]: the IC50 was over 40000 nM in assay [1] and 1.6 nM against PCSK9 [2]. For the same compound, at PCSK9 [3], the EC50 came out at 100 nM.

`O=C(NC1COC1)c1cnc(N[C@H]2CC[C@H](Nc3ccc(-n4ccccc4=O)cn3)C2)nn1` [Example 70, N-(Oxetan-3-yl)-3-(((1S,3S)-3-((2-oxo-2H-[1,3′-bipyridin]-6′-yl)amino)cyclopentyl)amino)-1,2,4-triazine-6-carboxamide]: the IC50 in assay [1] is over 40000 nM; against PCSK9 [2], 19 nM. The EC50 on PCSK9 [3] came to 200 nM.

Take `Cc1cnc(N[C@H]2CC[C@H](Nc3ccc(-n4cccc(OC(F)F)c4=O)cn3)C2)nn1` [Example 187, 3-(Difluoromethoxy)-6′-(((1S,3S)-3-((6-methyl-1,2,4-triazin-3-yl)amino)cyclopentyl)amino)-2H-[1,3′-bipyridin]-2-one]: the IC50 is over 40100 nM in assay [1] and 2.1 nM against PCSK9 [2]. Besides, the EC50 at PCSK9 [3] worked out at 100 nM.
